# Assay results from US20220288034A1, “METHOD OF REDUCING ABERRANT IMMUNE RESPONSE OR RISK OF PROGRESSION IN COVID-19” (CELLTAXIS, LLC, priority 2021, published 2022).
# Target: T1, LTA4H (Homo sapiens, UniProt P09960)
# T1 sequence (P09960 1-611): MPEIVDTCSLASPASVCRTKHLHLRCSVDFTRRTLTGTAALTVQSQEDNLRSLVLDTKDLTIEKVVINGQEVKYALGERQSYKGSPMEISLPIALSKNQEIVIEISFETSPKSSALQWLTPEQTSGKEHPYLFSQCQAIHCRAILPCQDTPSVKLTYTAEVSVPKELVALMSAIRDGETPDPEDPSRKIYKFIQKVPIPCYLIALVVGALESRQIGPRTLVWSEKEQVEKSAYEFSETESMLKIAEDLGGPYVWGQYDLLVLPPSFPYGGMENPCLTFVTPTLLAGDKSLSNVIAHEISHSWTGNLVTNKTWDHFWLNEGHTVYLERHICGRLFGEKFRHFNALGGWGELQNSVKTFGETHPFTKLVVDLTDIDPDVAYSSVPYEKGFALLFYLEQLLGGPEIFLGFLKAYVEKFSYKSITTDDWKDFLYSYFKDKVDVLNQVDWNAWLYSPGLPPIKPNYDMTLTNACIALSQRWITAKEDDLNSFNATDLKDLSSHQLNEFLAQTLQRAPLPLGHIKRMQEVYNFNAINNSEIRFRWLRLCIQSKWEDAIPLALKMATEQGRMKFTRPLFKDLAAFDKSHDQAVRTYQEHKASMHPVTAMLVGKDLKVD
# Test: In vitro inhibition of epoxide hydrolase enzymatic activity of LTA4H (LTB4 production)
# Type: biochemical
smiles,measurement,value
"O=C(O)c1ccc(CN2C[C@@H]3C[C@H]2CN3Cc2ccc(Oc3ccc(-c4ncco4)cc3)cc2)cc1 [acebilustat, 4-{[(1 S,4S)-5-({4-[4-oxazol-2-yl-phenoxy]phenyl}methyl)-2,5-diazabicyclo[2.2.1]heptan-2-yl]methyl}benzoic acid]",IC50,13.1 nM
